From patent EP0232089B1, “Quinone amides, their production and use” (Takeda Chemical Industries, Ltd., priority 1986, dated 1987)
Marks after values point to notes of the source that are not given here.

Test system: Bronchoconstriction in guinea pigs induced by PAF
Assay: Platelet activating factor (PAF)-induced bronchoconstriction in guinea pigs (method of Konzett-Rossler)
Format: in vivo
Settings: 8 animals
Procedure: Platelet activating factor (PAF)-induced bronchoconstriction in guinea pigs
Bronchoconstriction in guinea pigs induced by PAF (1 µg/kg, intravenous injection) was measured by the method of Konzett-Rossler. The following procedure was the same as that in leukotriene D4(LTD4)-induced bronchoconstriction. Test drugs were orally administered as a 5% gum arabic solution one hour before administration of PAF. Table 2 Inhibitory action against bronchoconstriction in guinea pigs

[1] = dose 5 mg/kg orally as 5% gum arabic solution one hour before PAF (1 µg/kg, intravenous injection)

SMILES | % inhibition [1] | % inhibition (dose 0.313 mg/kg orally as 5% gum arabic solution one hour before PAF (1 µg/kg, intravenous injection)) | % inhibition (dose 1.25 mg/kg orally as 5% gum arabic solution one hour before PAF (1 µg/kg, intravenous injection))
CC1=C(C)C(=O)C(C(CCCCCC(=O)N2CCN(CCc3ccccc3)CC2)c2ccccc2)=C(C)C1=O (racemic) [Compound No. 18, 7-(3,5,6-trimethyl-1 ,4-benzoquinon-2-yl)-7-phenylheptanoic acid 4-(2-phenylethyl)-piperazinamide] | 59.9* % | – | –
CC1=C(C)C(=O)C(C(CCCCCC(N)=O)c2ccccc2)=C(C)C1=O (centres unmarked) [Compound No. 1, 7-(3,5,6-trimethyl-1,4-benzoquinon-2-yl)-7-phenylheptanamide] | 100.0** % | 49.7* % | 80.3** %
CC1=C(C)C(=O)C(C(CCCCCC(=O)NC(Cc2ccccc2)C(=O)O)c2ccccc2)=C(C)C1=O (centres unmarked) [Compound No. 30] | 72.1* % | – | –
